One may read the inhibition as the relative decrease from the control value, in per cent.

One test addresses T1, human platelet membranes (Homo sapiens, UniProt P31645).
T1 construct: from tissue; host or cells: human platelets (membranes of sonicated platelet concentrates)
The test can be described thus: Platelet imipramine binding ([3H]-imipramine). Further details: key to Platelet Imipramine Binding, Result: Active: A compound is considered active if greater than about 50% inhibition is achieved at a concentration of about 10 μM. Particulars: 10 μM test compound, 60 min at 0° C.; for inhibition at 10 µM: [3H]imipramine. The method, then: The activity of the compounds of this invention as anti-depressant agents was also shown in the following test which measures the ability of a test compound to inhibit [^3 H]-imipramine binding to human platelet membranes. Human platelet concentrates were diluted about 1:20 with antiprotease containing buffer of the following composition:
Approximately 0.12M: sodium chloride
Approximately 0.05M: tris buffer
Approximately 0.005N: potassium chloride
Approximately 0.025: μg/ml aprotinin
Approximately 0.5: μg/ml pepstatin
Approximately 2×10^-5 N: bacitracin
Approximately 3 mN: ethylenediaminetetraacetic acid
Approximately 1 mN: ethyleneglycol-bis-(β-aminoethyl ether)-N,N'-tetracetic acid
Such buffer was kept at about pH 6.8 to prevent platelet release and aggregation. The diluted platelets were centrifuged at about 2,500 g and then resuspended in about 50 volumes of the same buffer. The cells were then ruptured with a Branson sonicator while the suspension was maintained in an ice bath. The ruptured cells were then centrifuged at about 18,000 g, resuspended in fresh buffer and recentrifuged at about 18,000 g. The resulting membranes were then diluted with the above antiprotease buffer, which had been adjusted to about pH 7.4, and to a protein concentration of about 3.0 mg/ml.
The test compounds were dissolved in dimethylsulfoxide at a concentration of about 50 mM and then diluted about 1:10 in either water, about 0.1M hydrochloric acid or about 0.1M sodium hydroxide. They were then diluted about 1:100 in buffer to about 50 μM, and about 50 μl of this stock solution was placed in triplicate test tubes. The tubes were cooled to about 0° C. and about 200 μl of the following mixture were added:
About 100 μl of 3 mg/ml membrane in buffer
About 50 μl of 15 nM[^3 H]imipramine in buffer
The tubes were incubated for about 60 minutes at about 0° C. Controls contain either buffer alone (100%) or about 10 μM final of desmethylimipramine (DMI). The samples were diluted with about 5 ml of buffer [0.12M-sodium chloride, 0.05M-tris buffer, 0.005M-potassium chloride (pH 7.4)], vacuum filtered and washed twice with about 5 ml of buffer. Radioactivity was measured in a liquid scintillation counter and the degree of binding was calculated.

The test system of test [1] is mice. The test can be described thus: Tetrabenazine-induced ptosis. The format is in vivo. The arrangement: key to Tetrabenazine-Induced Ptosis, Result: Active: A compound is considered active if 5 or more of 10 mice respond. Conditions: about 25 mg/kg i.p.; for Tetrabenazine-Induced Ptosis, Result: 30 min before tetrabenazine methanesulfonate about 39 mg/kg i.p., examined 30 min later; for Tetrabenazine-Induced Ptosis, mice responding of 10: responders (about 75% or greater opening of palpebral aperture)/tested. As to the method:
Inhibition of tetrabenazine-induced ptosis is observed concomitantly with the inhibition of tetrabenazine-induced depression. Ptosis is defined as more than about 75% closure of palpebral aperture induced in animals by the administration of tetrabenazine methanesulfonate. The compounds were administered intraperitoneally at a dosage of about 25 mg per kilogram of body weight to groups of 10 mice. About thirty minutes later, tetrabenazine methanesulfonate was administered intraperitoneally to each mouse at a dose of about 39 mg/kg. About thirty minutes after the injection of tetrabenazine, the mice were placed on an observation disc and examined for approximately 10 seconds for inhibition of ptosis. […] A compound is considered active if 5 or more of 10 mice respond.

In test [2] the test system is mice. The test can be described thus: Tetrabenazine-induced depression (exploratory behavior). Conditions: about 25 mg/kg i.p., 30 min before tetrabenazine methanesulfonate about 39 mg/kg i.p.; for Tetrabenazine-Induced Depression, mice protected of 10: protected/tested; for Tetrabenazine-Induced Depression, Result: tested 30 min later. The arrangement: key to Tetrabenazine-Induced Depression, Result: Active: A compound is considered active if 3 or more of the 10 mice are protected against the tetrabenazine-induced effects. The format is in vivo. The method, then: The compounds of this invention are useful as anti-depressant agents in warm-blooded animals. The anti-depressant properties of these compounds were tested by measuring their ability to counteract depression induced in such animals by the administration of tetrabenazine methanesulfonate. Each test compound was administered intraperitoneally to 10 mice at a dose of about 25 mg/kg of body weight. Approximately thirty minutes later, tetrabenazine methanesulfonate was administered intraperitoneally to each mouse at a dose of about 39 mg/kg of body weight, which dose is known to depress markedly the exploratory behavior of normal mice. Approximately thirty minutes later, the mice were tested for their exploratory behavior as described by E. Greenblatt and A. C. Osterberg, Toxicology and Applied Pharmacology, 7: 556-578 (1965). A compound is considered active if 3 or more of the 10 mice are protected against the tetrabenazine-induced effects.

SMILES strings stand for the structures.

T1 sequence (P31645 whole entry): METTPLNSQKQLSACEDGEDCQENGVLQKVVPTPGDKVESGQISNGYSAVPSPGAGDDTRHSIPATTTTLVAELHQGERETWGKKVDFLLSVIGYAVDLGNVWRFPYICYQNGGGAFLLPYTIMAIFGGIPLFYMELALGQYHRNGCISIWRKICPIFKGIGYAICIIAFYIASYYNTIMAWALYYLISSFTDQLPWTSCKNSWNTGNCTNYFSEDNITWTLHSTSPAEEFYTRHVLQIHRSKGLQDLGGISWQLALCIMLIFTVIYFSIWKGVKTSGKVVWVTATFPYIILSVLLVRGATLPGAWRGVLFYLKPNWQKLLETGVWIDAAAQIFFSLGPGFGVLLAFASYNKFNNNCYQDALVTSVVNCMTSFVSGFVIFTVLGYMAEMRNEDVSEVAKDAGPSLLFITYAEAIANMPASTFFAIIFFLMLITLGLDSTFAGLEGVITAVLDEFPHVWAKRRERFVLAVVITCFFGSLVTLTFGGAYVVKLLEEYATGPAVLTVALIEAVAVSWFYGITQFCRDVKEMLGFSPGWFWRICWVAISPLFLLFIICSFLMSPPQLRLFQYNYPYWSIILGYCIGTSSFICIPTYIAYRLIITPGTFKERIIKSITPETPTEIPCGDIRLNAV

Turning to `CCO[C@@H]1C[C@@H]2CN(C)C[C@@]21c1cccc(OC)c1` (relative stereo) [7α-Ethoxy-1β-(m-methoxyphenyl)-3-methyl-3-azabicyclo[3.2.0]heptane], on human platelet membranes, the “Platelet Imipramine Binding, Result” value is reported as “Active” and the inhibition at 10 µM amounted to 92%.
For `CCO[C@H]1C[C@@H]2CN(C)C[C@@]21c1cccc(OC)c1` (relative stereo) [7β-Ethoxy-1β-(m-methoxyphenyl)-3-methyl-3-azabicyclo[3.2.0]heptan], in the test with mice [1], the “Tetrabenazine-Induced Ptosis, Result” value was “Active” and the “Tetrabenazine-Induced Ptosis, mice responding of 10” value is recorded as 9/10. In addition, in the test on mice [2], the “Tetrabenazine-Induced Depression, mice protected of 10” value is 3/10 and the “Tetrabenazine-Induced Depression, Result” value was “Active”. On human platelet membranes, the “Platelet Imipramine Binding, Result” value is reported as “Active” and the inhibition at 10 µM turned out to be 94%.
Take `COc1cccc(C23CCC2CN(C)C3)c1.O.O=C(O)/C=C/C(=O)O` (centres unmarked) [1-(m-Methoxyphenyl)-3-methyl-3-azabicyclo[3.2.0]heptane, and fumarate salt monohydrate]: on human platelet membranes, the “Platelet Imipramine Binding, Result” value is given as “Active” and the inhibition at 10 µM turned out to be 99.8%.
As for `Cc1ccc(C23CCC2CN(C)C3)cc1.O=C(O)/C=C/C(=O)O` (centres unmarked) [1-(p-Methylphenyl)-3-methyl-3-azabicyclo[3.2.0]heptane, and fumarate salt], in the test with mice [1], the “Tetrabenazine-Induced Ptosis, Result” value is reported as “Active” and the “Tetrabenazine-Induced Ptosis, mice responding of 10” value is on record as 10/10. Moreover, in the test with mice [2], the “Tetrabenazine-Induced Depression, mice protected of 10” value is on record as 5/10 and the “Tetrabenazine-Induced Depression, Result” value is on record as “Active”.

These data come from patent US4544665A, “1-Aryl-3-azabicyclo[3.2.0]heptanes” (American Cyanamid Company, priority 1983, dated 1985).
